According to patent US20210207064A1, “COMPOUND FOR RESTORING CONTAMINATED SOIL OR CONTAMINATED WATER” (FNG RESEARCH CO., LTD., priority 2018, published 2021):

Assays:
[1] = Heavy metal removal ability test in contaminated soil around a factory (WAK-Me test kit); conditions: 1.0 wt % aqueous solution, colour comparison test kit
Procedure: The contaminated soil around the factory in the industrial complex was collected, pulverized, and meshed to prepare fine particles of soil samples.
Each 3 ml of aqueous solutions for restoring soil was added to soil samples and mixed for 5 minutes.

[2] = Formaldehyde (formalin) removing ability test (GC); conditions: 2.0% formaldehyde solution, 3 molar equivalents of compound, room temperature; for Formaldehyde GC Area, 30 min: after 30 min; for Formaldehyde GC Area, 180 min: after 180 min; for Formaldehyde GC Area, Initial: initial state
[3] = Heavy metal removal ability test in contaminated soil (ICP-MS), nickel; conditions: for Nickel (Ni) Adsorption amount: contaminated soil; for Nickel (Ni) Adsorption rate: relative to EDTA control
Procedure: (§1) (1) Preparation of Soil Contaminated with Heavy Metal
(§2) After collecting and pulverizing uncontaminated soil, fine particles obtained by using a mesh were mixed with the aqueous heavy metal solution to prepare soil samples contaminated with heavy metals.
(§3) Each 3 ml of the prepared aqueous solution was added to a soil sample contaminated with heavy metals and mixed for 5 minutes.
(§4) 50 ml of distilled water was added to the contaminated soil mixed with the aqueous solution for restoring soil, stirred for 20 minutes, and settled for 1 hour, and a supernatant was prepared as a sample solution.
(§5) The prepared sample solution was analyzed for the heavy metal component using an Inductively Coupled Plasma Mass Spectrometer (ICP-MS) (Xseries™ 2, Thermo Fisher Scientific, UK).
(§6) Adsorption rate of heavy metals (%)=(Adsorption amount of Embodiment/Adsorption amount of Control)×100 Equation 1

[4] = test system: human skin; assay: Skin irritation test of active ingredient (patch method, CTFA guidelines); type: in vivo; conditions: 24 h patch; for Test result (number of subject) (+) / Test result (number of subject) (++) / Test result (number of subject) (±) / Test result (number of subject) (−): 20 people; for Test result (number of subject) (+): (+) apparent reddening; for Test result (number of subject) (++): (++) more reddened and swollen; for Test result (number of subject) (±): (±) slightly reddish; for Test result (number of subject) (−): (−) no erythema
Procedure: A filter paper disk was placed in an 8 mm diameter, 10 panels of pin chamber.
After 24 hours, the pin chamber was removed, and skin conditions were visually observed. The degree and grade for skin irritation were calculated according to the following Equation 2, and the results are shown in Table 4 below.
[Criteria for Skin Irritation]
(−): No erythema or particularly no symptoms; (±): slightly reddish than the periphery; (+): Apparent reddening than periphery; (++): More reddened and swollen than periphery.
[Grade for Skin Irritation]
Degree of irritation 0-0.1: Grade I (unstimulated);
Degree of irritation 0.11-0.3: Grade II (weakly stimulated);
Degree of irritation 0.31-0.5: Grade III (moderately stimulated);
Degree of irritation 0.51 or more: Grade IV (strongly stimulated)

[5] = Heavy metal removal ability test in contaminated soil (ICP-MS), arsenic; conditions: for Arsenic (As) Adsorption amount: contaminated soil; for Arsenic (As) Adsorption rate: relative to EDTA control
Procedure: as §1, §2, §3, §4, §5, §6

[6] = Heavy metal removal ability test in contaminated soil (ICP-MS), cadmium; conditions: for Cadmium (Cd) Adsorption amount: contaminated soil; for Cadmium (Cd) Adsorption rate: relative to EDTA control
Procedure: as §1, §2, §3, §4, §5, §6

Compound | Total amount (Cu, Zn, Mn, Ni, Cd) [1] | Formaldehyde GC Area, 30 min [2] | Formaldehyde GC Area, 180 min [2] | Formaldehyde GC Area, Initial [2] | Nickel (Ni) Adsorption amount ([3]; content 0.5% aqueous solution) | Nickel (Ni) Adsorption rate ([3]; content 0.5%) | Nickel (Ni) Adsorption amount ([3]; content 1.0% aqueous solution) | Nickel (Ni) Adsorption rate ([3]; content 1.0%) | Nickel (Ni) Adsorption amount ([3]; content 2.0% aqueous solution) | Nickel (Ni) Adsorption rate ([3]; content 2.0%) | Test result (number of subject) (+) ([4]; content 0.1 wt %) | Test result (number of subject) (++) ([4]; content 0.1 wt %) | Test result (number of subject) (±) ([4]; content 0.1 wt %) | Test result (number of subject) (−) ([4]; content 0.1 wt %) | Degree of irritation ([4]; content 0.1 wt %) | Grade for skin irritation ([4]; content 0.1 wt %) | Test result (number of subject) (+) ([4]; content 0.5 wt %) | Test result (number of subject) (++) ([4]; content 0.5 wt %) | Arsenic (As) Adsorption amount ([5]; content 0.5% aqueous solution) | Cadmium (Cd) Adsorption amount ([6]; content 0.5% aqueous solution) | further results
O=C(O)c1ccc(N2CCCN(c3ccc(C(=O)O)o3)CCN(c3ccc(C(=O)O)o3)CCCN(c3ccc(C(=O)O)o3)CC2)o1 [Embodiment 12, 5,5′,5″,5′″-(1,4,8,11-tetraazacyclotetradecane-1,4,8,11-tetrayl)tetrakis(furan-2-carboxylic Acid)] | ≤5 ppm | 0.170 mAU*min | 0 mAU*min | 0.305 mAU*min | 77 ppm | 157% | 84 ppm | 171% | 89 ppm | 182% | 0 | 0 | 0 | 20 | 0 | I (Degree of irritation 0-0.1: Grade I (unstimulated)) | 0 | 0 | 41 ppm | 61 ppm | Test result (number of subject) (±) ([4]; content 0.5 wt %): 0; Test result (number of subject) (−) ([4]; content 0.5 wt %): 20; Degree of irritation ([4]; content 0.5 wt %): 0; Grade for skin irritation ([4]; content 0.5 wt %): I (Degree of irritation 0-0.1: Grade I (unstimulated)); Test result (number of subject) (+) ([4]; content 1.0 wt %): 0; Test result (number of subject) (++) ([4]; content 1.0 wt %): 0; Test result (number of subject) (±) ([4]; content 1.0 wt %): 1; Test result (number of subject) (−) ([4]; content 1.0 wt %): 19; Degree of irritation ([4]; content 1.0 wt %): 0.05; Grade for skin irritation ([4]; content 1.0 wt %): I (Degree of irritation 0-0.1: Grade I (unstimulated)); Arsenic (As) Adsorption rate ([5]; content 0.5%): 164%; Arsenic (As) Adsorption amount ([5]; content 1.0% aqueous solution): 43 ppm; Arsenic (As) Adsorption rate ([5]; content 1.0%): 172%; Arsenic (As) Adsorption amount ([5]; content 2.0% aqueous solution): 46 ppm; Arsenic (As) Adsorption rate ([5]; content 2.0%): 184%; Cadmium (Cd) Adsorption rate ([6]; content 0.5%): 149%; Cadmium (Cd) Adsorption amount ([6]; content 1.0% aqueous solution): 67 ppm; Cadmium (Cd) Adsorption rate ([6]; content 1.0%): 163%; Cadmium (Cd) Adsorption amount ([6]; content 2.0% aqueous solution): 72 ppm; Cadmium (Cd) Adsorption rate ([6]; content 2.0%): 176%
NCCNCCNCCN [Trientine, Triethylenetetramine, reference compound] | ≤5 (red) ppm | 0.168 mAU*min | 0 mAU*min | 0.305 mAU*min | 102 ppm | 208% | 115 ppm | 235% | 131 ppm | 267% | 0 | 0 | 0 | 20 | 0 | I (Degree of irritation 0-0.1: Grade I (unstimulated)) | 0 | 0 | 49 ppm | 68 ppm | Test result (number of subject) (±) ([4]; content 0.5 wt %): 1; Test result (number of subject) (−) ([4]; content 0.5 wt %): 19; Degree of irritation ([4]; content 0.5 wt %): 0.05; Grade for skin irritation ([4]; content 0.5 wt %): I (Degree of irritation 0-0.1: Grade I (unstimulated)); Test result (number of subject) (+) ([4]; content 1.0 wt %): 0; Test result (number of subject) (++) ([4]; content 1.0 wt %): 0; Test result (number of subject) (±) ([4]; content 1.0 wt %): 3; Test result (number of subject) (−) ([4]; content 1.0 wt %): 17; Degree of irritation ([4]; content 1.0 wt %): 0.15; Grade for skin irritation ([4]; content 1.0 wt %): II (Degree of irritation 0.11-0.3: Grade II (weakly stimulated)); Arsenic (As) Adsorption rate ([5]; content 0.5%): 196%; Arsenic (As) Adsorption amount ([5]; content 1.0% aqueous solution): 52 ppm; Arsenic (As) Adsorption rate ([5]; content 1.0%): 208%; Arsenic (As) Adsorption amount ([5]; content 2.0% aqueous solution): 59 ppm; Arsenic (As) Adsorption rate ([5]; content 2.0%): 236%; Cadmium (Cd) Adsorption rate ([6]; content 0.5%): 166%; Cadmium (Cd) Adsorption amount ([6]; content 1.0% aqueous solution): 75 ppm; Cadmium (Cd) Adsorption rate ([6]; content 1.0%): 183%; Cadmium (Cd) Adsorption amount ([6]; content 2.0% aqueous solution): 79 ppm; Cadmium (Cd) Adsorption rate ([6]; content 2.0%): 193%
O=C(O)CN(CCN(CC(=O)O)CC(=O)O)CC(=O)O [Control (EDTA), ethylenediaminetetraacetic acid, reference compound] | 2.0 ppm |  |  |  | 49 ppm |  |  |  |  |  |  |  |  |  |  |  |  |  | 25 ppm | 41 ppm | 
